From patent US8344007B2, “Water-soluble polymer-based cantharimides as potentially selective anti-tumor agents” (priority 2009, dated 2013) come the findings set out here.

Molecules are shown by their SMILES. Converted amounts (≈) assume the structure as drawn.

One series in a line: Solubility. The series is classed as physicochemical.
The test system of the next series is Hep3B. Put plainly: MTS assay, Hep3B cell growth. The settings on record: Homo sapiens, 48 hours of incubation. The series is classed as cell-based. The source says:
(§1) An acute myelogenous leukaemia (AML) cell line (KG1a) and a hepatocellular carcinoma (HCC) cell line (Hep3B) may be obtained from American Type of Culture Collection (ATCC). The AML cell line may be maintained in RPMI 1640 (JRH Biosciences) supplemented with 10% of heat inactivated fetal bovine serum (Hyclone), together with antibiotics including penicillin and streptomycin. The Hep3B HCC cell line may be maintained in DMEM with 10% of heat inactivated fetal bovine serum (Hyclone), together with antibiotics including penicillin and streptomycin. Cells may be allowed to grow in a humidified cell culture incubator kept at 5% carbon dioxide.
(§2) The effect of the synthesized cantharimides on the growth of the cell lines described above was investigated in vitro using a standard MTS ([3-(4,5-dimethylthiazol-2-yl)-5-(3-carboxymethoxyphen-yl)-2-(4-sulfophenyl)-2H-tetrazolium]) assay. Changes in the cellular viability of cell that include Hep3B and SKHep-1 with cantharidin analogues were monitored using the MTS activity assay. In particular, 1×10^4 hepatoma carcinoma cells (SK-Hep-1) were seeded at day 0. For the MTS assay, the medium was changed after 24 hours, and various compounds were then added at different concentrations. For bone marrow cells, compounds were added at the same day as the seeding. After 48 hours of incubation, the medium was removed, and MTS/PMS solution was added. The added medium was incubated for exactly 30 minutes. Subsequently, optical absorbance was determined at 490 nm using an optical absorbance detector (available from Promega).
More than 30 cantharimides were screened for their effects on cell proliferation and potential cytotoxicity in the two cell lines of Hep3B and SKHep-1. The activities of cantharimide were monitored in the presence of dicantharidic (a commercially available cantharidin-mimic) as a reference control.
For orientation: Formazan colour is commonly taken as a measure of viable cells.

Another series relates to leukemia cell line KG1a. As to the kind of experiment: MTS assay, leukemia cell line KG1a. The series is classed as cell-based. As to conditions: for IC50: Homo sapiens, KG-1a, concentration necessary for 50% of MTS reduction ability vs control, read-out: MTS50 activity.
Text: as §1, §2
The cytotoxic activity of cantharimide of formula (3) using a leukemia cell line KG1a was investigated by means of a MTS assay. The MTS50 activity was measured as the concentration necessary for 50% of MTS reduction ability by the chemical treated cell as compared with the control. […] On the other hand, cantharimide gave a value of about 5 µg/ml for MTS50 activity against the same cancer cell line.

The test system of series [1] is non-malignant haematological disorder bone marrow. As to the kind of experiment: Morphology assay, bone marrow. The series is classed as cell-based, human. The settings on record: 48 hours incubation. The source says: (§3) Non-malignant hematological disorder bone marrow cells may be collected by a bone marrow aspirate method from consented patients from clinical wards of Prince of Wales Hospital (Hong Kong, China), according to the regulation of the Hospital. Immediately after collection, mononuclear cells may be enriched by Ficoll Plaque (available from General Electricity) gradient centrifugation. Cells may be washed twice by phosphate buffered saline and resuspended in complete medium. Viable cell percentage may then be estimated by trypan blue exclusion assay and counted using a haemacytometer.
The toxicity on non-malignant haematological bone marrow sample was tested to evaluate the side effects of cantharidin, which included bone marrow suppression, and gastrointestinal and urinary tract toxicity.
(§4) The morphological effect of cytotoxic action of cantharidic acid and cantharimide on leukemia cells are depicted in FIGS. 1A to 1F. The untreated non-malignant haematological disorder bone marrow and KG1a AML cell lines are depicted in FIGS. 1A and 1D, respectively. The non-malignant haematological disorder bone marrow and KG1a AML cell lines treated with 5 µg/mL of dicantharidic acid are depicted in FIGS. 1B and 1E, respectively. The non-malignant haematological disorder bone marrow and KG1a AML cell lines treated with 5 µg/mL of cantharimide are depicted in FIGS. 1C and 1F, respectively.

In series [2] the test system is non-malignant haematological disorder bone marrow cells. Put plainly: MTS assay, primary culture of bone marrow cells. The series is classed as cell-based, human. Set-up: toxicity to bone marrow cells: dose or concentration left out as unconfirmed.
Text: as §3
as §2, with “After 48 hours of incubation, the medium was removed, and MTS/PMS solution was added. The added medium was incubated for exactly 30 minutes.” left out

A further series relates to KG1a AML cell line. As to the kind of experiment: Morphology assay, KG1a AML cell line. The series is classed as cell-based. More on the design: dose or concentration left out as unconfirmed. The settings on record: 48 hours incubation.
Text: as §1, §4

On to `C[C@@]12C(=O)N(c3nc4ccc(OC(F)(F)F)cc4s3)C(=O)[C@]1(C)[C@H]1CC[C@@H]2O1` [Entry 4], for which the Solubility in water result in the series “Solubility” is “Fair”. Further, in the series on Hep3B, the IC50 is ~10 µg/mL (≈ 24.2 µM).

Turning to `C[C@]1(C(=O)O)[C@@H]2CC[C@@H](O2)[C@@]1(C)C(=O)O` [Entry 11, reference compound], in the series “Solubility”, the Solubility in water entry is “Excellent”. Besides, the IC50 with Hep3B is ~0.25 µg/mL (≈ 1.17 µM).

The term solubility denotes the dissolved amount per volume that the medium holds. Consider `C[C@@]12C(=O)N(c3nc4ccc(C(=O)O)cc4s3)C(=O)[C@]1(C)[C@H]1CC[C@@H]2O1` [Entry 7], for which the IC50 in the series on leukemia cell line KG1a and in the series with Hep3B was ~5 µg/mL (≈ 13.4 µM) throughout. In addition, in “Solubility” (DMSO, organic solvent or mixture), the solubility was 250 mg/mL (≈ 671000 µM). Moreover, in the series “Solubility”, the Solubility in water entry was “Good”. For the same molecule, the “morphological effect on bone marrow cells” value in series [1] was “colony formation remained unchanged”. In addition, the “cytotoxic activity to normal bone marrow cells” value in series [2] is listed as “lack of cytotoxic activity”. The “morphological effect on leukemia cells” value in the series on KG1a AML cell line was “induced loss of colony formation potential and cell shrinkage”.

`CC1(C(=O)O)C2CCC(O2)C1(C)C(=O)O` (stereo not shown) [dicantharidic acid, reference compound]: the IC50 with leukemia cell line KG1a was ~0.5 µg/mL (≈ 2.33 µM). For the same molecule, the “activity to the cancer cell line compared to cantharimide” value in the series with leukemia cell line KG1a (MTS50) came to 10 fold. In addition, the “morphological effect on bone marrow cells” value in series [1] is on record as “induced a similar loss”. Also, in series [2] (concentration down to 0.15625, 48 hours of incubation), the “toxicity to bone marrow cells” value was “extremely toxic”. Moreover, in the series with KG1a AML cell line, the “morphological effect on leukemia cells” value is “induced loss of colony formation potential and cell shrinkage”.

As to `C[C@@]12C(=O)N(c3nc4ccc(C(F)(F)F)cc4s3)C(=O)[C@]1(C)[C@H]1CC[C@@H]2O1` [Entry 5], the Solubility in water entry in the series “Solubility” is “Fair”. Moreover, the IC50 in the series on Hep3B is ~5 µg/mL (≈ 12.6 µM).

As to `COc1ccc2nc(N3C(=O)[C@@]4(C)[C@@H]5CC[C@@H](O5)[C@@]4(C)C3=O)sc2c1` [Entry 3], the Solubility in water result in “Solubility” is “Poor”. Further, in the series on Hep3B, the IC50 is ~5 µg/mL (≈ 14 µM).

As to `COC(=O)c1ccc2nc(N3C(=O)[C@@]4(C)[C@@H]5CC[C@@H](O5)[C@@]4(C)C3=O)sc2c1` [Entry 8], the Solubility in water entry in the series “Solubility” is “Good”.

In the case of `CCCCOC(=O)c1ccc2nc(N3C(=O)[C@@]4(C)[C@@H]5CC[C@@H](O5)[C@@]4(C)C3=O)sc2c1` [Entry 9], the Solubility in water result in the series “Solubility” is “Good”.

Regarding `Cc1ccc2nc(N3C(=O)[C@@]4(C)[C@@H]5CC[C@@H](O5)[C@@]4(C)C3=O)sc2c1` [Entry 2], the Solubility in water result in the series “Solubility” is “Poor”. In addition, the IC50 in the series on Hep3B is ~20 µg/mL (≈ 58.4 µM).

For `C[C@@]12C(=O)N(c3nc4ccc(F)cc4s3)C(=O)[C@]1(C)[C@H]1CC[C@@H]2O1` [Entry 6], the Solubility in water entry in the series “Solubility” was “Poor”. Also, the IC50 in the series on Hep3B is ~5 µg/mL (≈ 14.4 µM).

For `C[C@@]12C(=O)N(c3nc4ccccc4s3)C(=O)[C@]1(C)[C@H]1CC[C@@H]2O1` [Entry 1], the Solubility in water result in “Solubility” is “Poor”. Moreover, the IC50 with Hep3B is ~6 µg/mL (≈ 18.3 µM).
